Source: ChEMBL document CHEMBL3351420, “Liver X receptor (LXR) partial agonists: biaryl pyrazoles and imidazoles displaying a preference for LXRβ” (Bioorg Med Chem Lett, 2015)
The source made the active and inactive calls. No cut-off for these calls is given here.

What was measured:
[1] = target: Retinoic acid receptor RXR-alpha/oxysterols receptor LXR-alpha (Homo sapiens, UniProt Q13133); assay: Binding affinity to LXRalpha-RXRalpha heterodimer (unknown origin) expressed in insect cells by scintillation proximity assay
Sequence of Retinoic acid receptor RXR-alpha/oxysterols receptor LXR-alpha (P19793 whole entry, one chain of several): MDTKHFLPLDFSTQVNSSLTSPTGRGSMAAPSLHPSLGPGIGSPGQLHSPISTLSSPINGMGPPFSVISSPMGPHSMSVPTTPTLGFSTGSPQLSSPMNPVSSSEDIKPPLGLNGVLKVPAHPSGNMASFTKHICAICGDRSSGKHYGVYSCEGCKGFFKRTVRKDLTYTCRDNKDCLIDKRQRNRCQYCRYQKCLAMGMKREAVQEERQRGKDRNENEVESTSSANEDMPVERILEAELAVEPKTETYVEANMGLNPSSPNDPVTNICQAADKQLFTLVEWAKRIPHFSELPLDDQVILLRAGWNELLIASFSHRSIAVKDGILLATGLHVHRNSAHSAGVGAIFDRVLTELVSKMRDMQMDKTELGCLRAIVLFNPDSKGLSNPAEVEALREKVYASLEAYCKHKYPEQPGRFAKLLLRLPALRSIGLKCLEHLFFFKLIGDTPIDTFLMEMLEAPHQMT

[2] = target: Retinoic acid receptor RXR-alpha/oxysterols receptor LXR-beta (Homo sapiens, UniProt P55055); assay: Binding affinity to LXRbeta-RXRalpha heterodimer (unknown origin) expressed in insect cells by scintillation proximity assay
Sequence of Retinoic acid receptor RXR-alpha/oxysterols receptor LXR-beta (P19793 whole entry, one chain of several): as above

[3] = target: T1, Oxysterols receptor LXR-alpha (Homo sapiens, UniProt Q13133); assay: Transactivation of LXRalpha (unknown origin) expressed in CV1 cells by luciferase reporter gene assay; type: cell-based, CV-1
T1 sequence (Q13133 whole entry): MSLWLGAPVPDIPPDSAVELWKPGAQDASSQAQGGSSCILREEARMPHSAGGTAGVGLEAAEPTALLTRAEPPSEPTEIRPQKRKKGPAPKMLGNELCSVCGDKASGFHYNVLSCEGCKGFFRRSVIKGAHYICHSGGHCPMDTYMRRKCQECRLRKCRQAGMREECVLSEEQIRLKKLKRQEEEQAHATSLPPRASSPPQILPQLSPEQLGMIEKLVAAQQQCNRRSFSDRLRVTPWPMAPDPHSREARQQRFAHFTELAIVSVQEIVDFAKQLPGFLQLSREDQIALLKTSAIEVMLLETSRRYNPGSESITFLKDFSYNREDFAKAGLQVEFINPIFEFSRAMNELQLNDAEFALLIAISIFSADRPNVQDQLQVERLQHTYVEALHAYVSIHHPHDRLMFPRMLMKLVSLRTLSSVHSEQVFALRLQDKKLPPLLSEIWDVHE

[4] = target: T2, Oxysterols receptor LXR-beta (Homo sapiens, UniProt P55055); assay: Transactivation of LXRbeta (unknown origin) expressed in CV1 cells by luciferase reporter gene assay; type: cell-based, CV-1
T2 sequence (P55055 whole entry): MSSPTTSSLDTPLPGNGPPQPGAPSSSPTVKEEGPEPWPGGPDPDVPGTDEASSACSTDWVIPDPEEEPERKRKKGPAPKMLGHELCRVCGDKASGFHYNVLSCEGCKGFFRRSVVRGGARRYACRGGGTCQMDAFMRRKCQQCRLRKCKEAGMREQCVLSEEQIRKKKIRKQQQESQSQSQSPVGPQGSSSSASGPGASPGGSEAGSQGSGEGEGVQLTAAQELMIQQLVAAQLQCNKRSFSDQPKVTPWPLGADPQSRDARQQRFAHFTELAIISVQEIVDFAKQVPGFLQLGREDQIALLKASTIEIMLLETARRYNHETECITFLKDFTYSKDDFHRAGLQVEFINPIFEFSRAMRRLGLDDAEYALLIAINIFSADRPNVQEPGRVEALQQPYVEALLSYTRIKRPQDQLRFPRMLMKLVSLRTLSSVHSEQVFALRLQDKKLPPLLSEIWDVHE

Liver X receptor [5] = target: T3, Liver X receptor (Homo sapiens, UniProt Q13133+P55055); assay: Transactivation of LXR (unknown origin) expressed in human HeLa cells by ABCA1 LXREx3 reporter assay; type: cell-based
T3 sequence (Q13133 whole entry): T1 sequence (Q13133 whole entry)
T3 sequence (P55055 whole entry): T2 sequence (P55055 whole entry)

Liver X receptor [6] = target: T3, Liver X receptor; assay: Transactivation of LXR in human whole blood assessed as induction of ABCA1 after 4 hrs by SYBR-Green quantitative PCR analysis
[7] = Plasma concentration in mouse at 30 mg/kg, po measured at 4 hrs post dose; type: ADME, organism-based; parameters: dose 30 mg/kg, route oral
[8] = Plasma concentration in mouse at 30 mg/kg, po measured at 24 hrs post dose; type: ADME, organism-based; parameters: dose 30 mg/kg, route oral
[9] = Drug uptake in mouse liver at 30 mg/kg, po measured at 24 hrs post dose; type: ADME, organism-based; parameters: dose 30 mg/kg, route oral; details: read-out: Drug uptake
[10] = target: Liver X receptor (Homo sapiens) (UniProt Q13133+P55055); assay: Transactivation of LXR in human whole blood assessed as induction of ABCA1 after 4 hrs by SYBR-Green quantitative PCR analysis relative to 1-(2,4-difluorobenzyl)-2-oxo-6-(4-phenoxyphenyl)-4-(trifluoromethyl)-1,2-dihydropyridine-3-carbonitrile
Mus musculus [11] = assay: Induction of ABCA1 mRNA induction in C57BL/6 mouse blood cells at 3 to 30 mg/kg for 7 days measured 5 hrs post last dose relative to control; type: functional, organism-based
Mus musculus [12] = assay: Induction of ABCG1 mRNA induction in C57BL/6 mouse blood cells at 3 to 30 mg/kg for 7 days measured 5 hrs post last dose relative to control; type: functional, organism-based
Mus musculus [13] = assay: Elevation of plasma triglyceride in C57BL/6 mouse at 3 to 10 mg/kg for 7 days measured 24 hrs post last dose relative to control; type: ADME, organism-based; parameters: dose 3-10 mg/kg; details: in vivo
Mus musculus [14] = assay: Elevation of hepatic triglyceride in C57BL/6 mouse at 3 to 30 mg/kg for 7 days measured 24 hrs post last dose relative to control; type: ADME, organism-based; parameters: dose 3-30 mg/kg; details: in vivo
Mus musculus [15] = assay: Elevation of plasma triglyceride in C57BL/6 mouse at 30 mg/kg for 7 days measured 24 hrs post last dose relative to control; type: ADME, organism-based; parameters: dose 30 mg/kg; details: in vivo
Mus musculus [16] = assay: Elevation of hepatic triglyceride in C57BL/6 mouse at 30 mg/kg for 7 days measured 24 hrs post last dose relative to control; type: ADME, organism-based; parameters: dose 30 mg/kg; details: in vivo
Mus musculus [17] = assay: Induction of SREBP1c mRNA in C57BL/6 mouse liver at 10 mg/kg for 7 days measured 24 hrs post last dose relative to control; type: organism-based; parameters: dose 10 mg/kg; details: C57BL/6, 24 h, read-out: FC
Mus musculus [18] = assay: Induction of SREBP1c mRNA in C57BL/6 mouse liver at 30 mg/kg for 7 days measured 24 hrs post last dose relative to control; type: organism-based; parameters: dose 30 mg/kg; details: C57BL/6, 24 h, read-out: FC
[19] = Plasma concentration in C57BL/6 mouse at 3 mg/kg, po measured at 5 hrs post dose; type: ADME, organism-based; parameters: dose 3 mg/kg, route oral
[20] = Plasma concentration in C57BL/6 mouse at 10 mg/kg, po measured at 5 hrs post dose; type: ADME, organism-based; parameters: dose 10 mg/kg, route oral
[21] = Plasma concentration in C57BL/6 mouse at 30 mg/kg, po measured at 5 hrs post dose; type: ADME, organism-based; parameters: dose 30 mg/kg, route oral

SMILES: CC(C)(O)c1cn(-c2ccc(-c3cccc(S(C)(=O)=O)c3)cc2)c(Cc2ccccc2Cl)n1
- Ki [1]: 25 nM
- Ki [2]: 1 nM
- EC50 [3]: 85 nM
- EC50 [4]: 66 nM
- EC50 (Liver X receptor [5]): 12 nM
- EC50 (Liver X receptor [6]): 3200 nM
- concentration at 4 h [7]: 1300 nM
- concentration at 24 h [8]: 400 nM
- concentration at 24 h [9]: 1500 nM
- Efficacy [10]: 62%

SMILES: CS(=O)(=O)c1cccc(-c2ccc(-c3cc(C(F)(F)F)nn3Cc3ccc(F)cc3F)s2)c1
- Ki [1]: 20 nM
- Ki [2]: 7 nM
- EC50 [3]: 18 nM
- EC50 [4]: 14 nM

SMILES: CC(C)(O)c1cn(-c2ccc(-c3cccc(S(C)(=O)=O)c3)cc2)c(C(C)(C)c2ccccc2Cl)n1 [BMS-779788]
- Ki [1]: 68 nM
- Ki [2]: 14 nM
- EC50 [3]: 230 nM
- EC50 [4]: 250 nM
- EC50 (Liver X receptor [5]): 33 nM
- EC50 (Liver X receptor [6]): 1200 nM
- concentration at 4 h [7]: 5400 nM
- concentration at 24 h [8]: 40 nM
- concentration at 24 h [9]: < 50 nM
- Activity (Mus musculus [11]): Active
- Activity (Mus musculus [12]): Active
- Activity (Mus musculus [13]): Non-toxic
- Activity (Mus musculus [14]): Non-toxic
- Activity (Mus musculus [15]): 74%
- Activity (Mus musculus [16]): Non-toxic
- fold induction at 10 mg/kg (Mus musculus [17]): 2.7
- fold induction at 30 mg/kg (Mus musculus [18]): 3.5
- concentration at 5 h [19]: 50 nM
- concentration at 5 h [20]: 200 nM
- concentration at 5 h [21]: 2000 nM
- Efficacy [10]: 55%

SMILES: CC(C)(O)c1cn(-c2ccc(-c3cccc(S(C)(=O)=O)c3)cc2)c(Cc2ccccc2C(F)(F)F)n1
- Ki [1]: 66 nM
- Ki [2]: 7 nM
- EC50 [3]: 200 nM
- EC50 [4]: 140 nM
- EC50 (Liver X receptor [5]): 27 nM
- EC50 (Liver X receptor [6]): 3100 nM
- concentration at 4 h [7]: 6000 nM
- concentration at 24 h [8]: 20 nM
- concentration at 24 h [9]: 200 nM
- Efficacy [10]: 30%

SMILES: CS(=O)(=O)c1cccc(-c2ccc(-n3cc(C(F)(F)F)nc3-c3ccccc3Cl)cc2)c1
- Ki [1]: 61 nM
- Ki [2]: 11 nM
- EC50 [3]: 52 nM
- EC50 [4]: 61 nM
- EC50 (Liver X receptor [5]): 5 nM
- concentration at 4 h [7]: 1200 nM
- concentration at 24 h [8]: 2300 nM
- concentration at 24 h [9]: 32000 nM

SMILES: CC(C)(O)c1cn(-c2ccc(-c3cccc(S(C)(=O)=O)c3)cc2)c(-c2ccccc2Cl)n1
- Ki [1]: 1600 nM
- Ki [2]: 59 nM
- EC50 [3]: > 10000 nM
- EC50 [4]: 600 nM
- EC50 (Liver X receptor [5]): 140 nM
- EC50 (Liver X receptor [6]): 8300 nM
- concentration at 4 h [7]: 14000 nM
- concentration at 24 h [8]: 2000 nM
- concentration at 24 h [9]: 13200 nM
- Efficacy [10]: 31%

SMILES: CS(=O)(=O)c1cccc(-c2ccc(-c3cc(C(F)(F)F)nn3-c3ccccc3C(F)(F)F)s2)c1
- Ki [1]: 240 nM
- Ki [2]: 16 nM
- EC50 [3]: 120 nM
- EC50 [4]: 68 nM
- EC50 (Liver X receptor [5]): 8 nM
- concentration at 4 h [7]: 6900 nM
- concentration at 24 h [8]: 4100 nM

SMILES: CS(=O)(=O)c1cccc(-c2cccc(-c3cc(C(F)(F)F)nn3-c3ccccc3Cl)c2)c1
- Ki [1]: 300 nM
- Ki [2]: 31 nM
- EC50 [3]: 320 nM
- EC50 [4]: 230 nM
- EC50 (Liver X receptor [5]): 38 nM
- concentration at 4 h [7]: 6600 nM
- concentration at 24 h [8]: 300 nM
- concentration at 24 h [9]: 1000 nM

SMILES: CC(C)(O)c1cc(-c2ccc(-c3cccc(S(C)(=O)=O)c3)s2)n(-c2ccccc2Cl)n1
- Ki [1]: 1500 nM
- Ki [2]: 83 nM
- EC50 [3]: 540 nM
- EC50 [4]: 620 nM
- EC50 (Liver X receptor [5]): 800 nM

SMILES: Cc1cc(CC(=O)O)ccc1-c1ccc(-c2cc(C(F)(F)F)c(C#N)c(=O)n2Cc2ccc(F)cc2F)s1
- Ki [1]: 36 nM
- Ki [2]: 9 nM
- EC50 [3]: 570 nM
- EC50 [4]: 320 nM
- EC50 (Liver X receptor [5]): 40 nM
- fold change (FC) (Mus musculus [16]): 4.8
- fold induction at 30 mg/kg (Mus musculus [18]): 7.7

SMILES: COC(=O)c1cc(-c2ccc(-c3cccc(S(C)(=O)=O)c3)s2)n(-c2ccccc2Cl)n1
- Ki [1]: 150 nM
- Ki [2]: 10 nM
- EC50 [3]: 65 nM
- EC50 [4]: 64 nM
- EC50 (Liver X receptor [5]): 310 nM

SMILES: CS(=O)(=O)c1cccc(-c2ccc(-c3cc(C(F)(F)F)c(C#N)c(=O)n3Cc3ccc(F)cc3F)s2)c1
- Ki [1]: 11 nM
- Ki [2]: 11 nM
- EC50 [3]: 4 nM
- EC50 [4]: 2 nM

SMILES: CS(=O)(=O)c1cccc(-c2ccc(-c3cc(C(F)(F)F)nn3-c3ccccc3Cl)s2)c1
- Ki [1]: 68 nM
- Ki [2]: 12 nM
- EC50 [3]: 140 nM
- EC50 [4]: 110 nM
- EC50 (Liver X receptor [5]): 9 nM

SMILES: CS(=O)(=O)c1cccc(-c2ccc(-c3cc(C(F)(F)F)nn3-c3ccccc3Cl)cc2)c1
- Ki [1]: 180 nM
- Ki [2]: 13 nM
- EC50 [3]: 220 nM
- EC50 [4]: 49 nM
- EC50 (Liver X receptor [5]): 13 nM
- EC50 (Liver X receptor [6]): 480 nM
- concentration at 4 h [7]: 600 nM
- concentration at 24 h [8]: 400 nM
- concentration at 24 h [9]: 7800 nM
- Efficacy [10]: 49%

SMILES: CC(C)(O)c1cn(-c2ccc(-c3cccc(S(C)(=O)=O)c3)cc2)c(-c2c(Cl)cccc2Cl)n1
- Ki [1]: 2500 nM
- Ki [2]: 54 nM
- EC50 [3]: > 10000 nM
- EC50 [4]: 670 nM
- EC50 (Liver X receptor [5]): 140 nM
- EC50 (Liver X receptor [6]): 7000 nM
- concentration at 4 h [7]: 18500 nM
- concentration at 24 h [8]: 600 nM
- concentration at 24 h [9]: 4400 nM
- Efficacy [10]: 38%

SMILES: N#Cc1c(C(F)(F)F)cc(-c2ccc(Oc3ccccc3)cc2)n(Cc2ccc(F)cc2F)c1=O
- Ki [1]: 26 nM
- Ki [2]: 9 nM
- EC50 [3]: 20 nM
- EC50 [4]: 20 nM
- EC50 (Liver X receptor [5]): 7 nM
